Experimental data published in ChEMBL document CHEMBL1201862, “PubChem BioAssay data set” (2004).
The source made the active and inactive calls.

Assays:
Keap1/Nrf2 = Keap1/Nrf2 (Homo sapiens, UniProt Q14145); assay: disruptors of Keap1 binding to Nrf2 peptide – biochemical, fluorescence polarization, cherry-picked samples, dose response (AID 588683)
[1] = target: T1, Endoribonuclease toxin MazF (Escherichia coli K-12, UniProt P0AE70); assay: substrate-only fluorescence increase artefacts – biochemical, single-stranded RNase substrate, counter-screen for MazEF activator project, dose response (AID 588502); assay type: functional
T1 sequence (P0AE70 whole entry): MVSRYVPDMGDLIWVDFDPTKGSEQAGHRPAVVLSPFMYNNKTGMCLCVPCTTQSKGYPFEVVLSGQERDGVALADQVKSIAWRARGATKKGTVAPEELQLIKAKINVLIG

[2] = target: UDP-galactopyranose mutase (Mycobacterium tuberculosis, UniProt P9WIQ1); assay: Inhibitors of Mycobacterium tuberculosis UDP-galactopyranose mutase (UGM) enzyme Measured in Biochemical System Using Plate Reader - 2105-02_Inhibitor_Dose_CherryPick_Activity. [Related pubchem assays (depositor defined):AID504439]
Chain of UDP-galactopyranose mutase (P9WIQ1 whole entry): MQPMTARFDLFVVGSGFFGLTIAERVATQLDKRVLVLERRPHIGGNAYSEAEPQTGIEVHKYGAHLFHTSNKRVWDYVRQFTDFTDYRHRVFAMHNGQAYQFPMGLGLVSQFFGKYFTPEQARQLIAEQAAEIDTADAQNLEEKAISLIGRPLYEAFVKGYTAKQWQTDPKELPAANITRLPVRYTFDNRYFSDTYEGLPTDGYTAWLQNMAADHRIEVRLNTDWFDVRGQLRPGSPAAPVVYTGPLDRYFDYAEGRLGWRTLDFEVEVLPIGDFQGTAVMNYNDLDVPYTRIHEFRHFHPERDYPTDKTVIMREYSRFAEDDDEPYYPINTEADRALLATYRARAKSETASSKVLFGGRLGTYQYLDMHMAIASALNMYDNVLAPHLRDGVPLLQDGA

Salmon testes DNA = assay: acridine orange-DNA binding displacement – biochemical, fluorescence polarization, cherry-picked samples, set 2, artefact control for KSHV LANA DNA-binding inhibitor project, dose response (AID 504727); parameters: species or system Salmonidae
ORF 73 = target: T2, ORF 73 (Human herpesvirus 8, UniProt O40947); assay: KSHV LANA DNA-binding disruption – biochemical, fluorescence polarization, cherry-picked samples, dose response (AID 504725); parameters: species or system Human gammaherpesvirus 8;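 further: fluorescence polarization of a labeled DNA duplex reporting LANA DNA binding; potency is for inhibitors that block LANA binding to the DNA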
T2 sequence (O40947 whole entry): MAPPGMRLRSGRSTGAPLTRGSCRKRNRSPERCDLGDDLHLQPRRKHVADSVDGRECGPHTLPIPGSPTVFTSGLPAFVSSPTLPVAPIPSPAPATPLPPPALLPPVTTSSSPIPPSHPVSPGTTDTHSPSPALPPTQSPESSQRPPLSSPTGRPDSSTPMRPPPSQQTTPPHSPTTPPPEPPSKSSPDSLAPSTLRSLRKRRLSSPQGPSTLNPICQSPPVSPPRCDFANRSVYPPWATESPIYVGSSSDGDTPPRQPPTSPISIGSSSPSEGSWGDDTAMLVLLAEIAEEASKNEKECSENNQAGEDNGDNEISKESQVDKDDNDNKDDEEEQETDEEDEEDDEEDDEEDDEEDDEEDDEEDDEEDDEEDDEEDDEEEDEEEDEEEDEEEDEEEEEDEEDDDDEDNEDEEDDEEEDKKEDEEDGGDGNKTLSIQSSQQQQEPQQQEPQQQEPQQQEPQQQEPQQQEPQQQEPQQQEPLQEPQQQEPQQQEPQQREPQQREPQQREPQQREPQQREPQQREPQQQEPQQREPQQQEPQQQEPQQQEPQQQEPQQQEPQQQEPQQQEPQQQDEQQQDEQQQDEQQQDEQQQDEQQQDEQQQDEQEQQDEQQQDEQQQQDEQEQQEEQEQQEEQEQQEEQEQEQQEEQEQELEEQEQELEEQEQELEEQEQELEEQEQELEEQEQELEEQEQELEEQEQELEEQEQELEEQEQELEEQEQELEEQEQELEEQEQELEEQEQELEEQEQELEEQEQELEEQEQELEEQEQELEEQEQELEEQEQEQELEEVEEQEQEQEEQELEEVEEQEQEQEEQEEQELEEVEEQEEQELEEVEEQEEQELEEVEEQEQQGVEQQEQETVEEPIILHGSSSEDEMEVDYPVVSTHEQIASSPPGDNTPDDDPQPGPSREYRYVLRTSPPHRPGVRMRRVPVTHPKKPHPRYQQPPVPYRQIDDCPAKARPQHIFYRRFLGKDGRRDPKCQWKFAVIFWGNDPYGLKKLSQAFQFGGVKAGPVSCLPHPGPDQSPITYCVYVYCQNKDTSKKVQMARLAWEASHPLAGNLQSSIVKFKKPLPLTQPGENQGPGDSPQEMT

[3] = target: T1, Endoribonuclease toxin MazF; assay: activation of MazEF endoribonuclease cleavage – biochemical, fluorescence, single-stranded RNA substrate, uHTS hits, dose response (AID 588481); assay type: functional
Protein RecA = target: T3, Protein RecA (Mycobacterium tuberculosis, UniProt P9WHJ3); assay: Fluorescence Cell-Free Homogeneous Dose Retest to Identify Inhibitors of RecA-Intein Splicing Activity. [Related pubchem assays (depositor defined):AID2097, AID2223, AID489010, AID492950]; assay type: functional
T3 sequence (P9WHJ3 whole entry): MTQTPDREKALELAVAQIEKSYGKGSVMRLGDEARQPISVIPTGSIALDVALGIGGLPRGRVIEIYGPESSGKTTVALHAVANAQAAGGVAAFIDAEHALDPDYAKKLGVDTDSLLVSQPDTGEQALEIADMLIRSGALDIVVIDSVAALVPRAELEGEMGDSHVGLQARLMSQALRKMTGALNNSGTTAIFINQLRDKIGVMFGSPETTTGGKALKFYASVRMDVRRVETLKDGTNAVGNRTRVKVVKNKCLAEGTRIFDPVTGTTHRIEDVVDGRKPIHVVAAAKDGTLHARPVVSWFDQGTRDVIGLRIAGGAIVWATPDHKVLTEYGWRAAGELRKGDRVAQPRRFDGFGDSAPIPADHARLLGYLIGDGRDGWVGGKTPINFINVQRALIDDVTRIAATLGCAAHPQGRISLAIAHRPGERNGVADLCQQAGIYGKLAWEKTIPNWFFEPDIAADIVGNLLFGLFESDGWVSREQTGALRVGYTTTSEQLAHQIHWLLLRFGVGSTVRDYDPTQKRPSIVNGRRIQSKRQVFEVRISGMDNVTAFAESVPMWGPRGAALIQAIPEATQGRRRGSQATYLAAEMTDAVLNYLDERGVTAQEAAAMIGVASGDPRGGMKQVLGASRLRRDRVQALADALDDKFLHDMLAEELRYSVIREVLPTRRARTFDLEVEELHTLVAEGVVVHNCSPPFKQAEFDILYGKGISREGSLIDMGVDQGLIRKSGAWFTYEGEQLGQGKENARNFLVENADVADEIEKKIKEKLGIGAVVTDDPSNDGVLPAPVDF

[4] = target: G-protein coupled receptor 55 (Homo sapiens, UniProt Q9Y2T6); assay: selective activators of receptor GPR55 – imaging, U2OS cells, beta-arrestin-GFP redistribution, primary screen (AID 1961); assay type: functional
Chain of G-protein coupled receptor 55 (Q9Y2T6 whole entry): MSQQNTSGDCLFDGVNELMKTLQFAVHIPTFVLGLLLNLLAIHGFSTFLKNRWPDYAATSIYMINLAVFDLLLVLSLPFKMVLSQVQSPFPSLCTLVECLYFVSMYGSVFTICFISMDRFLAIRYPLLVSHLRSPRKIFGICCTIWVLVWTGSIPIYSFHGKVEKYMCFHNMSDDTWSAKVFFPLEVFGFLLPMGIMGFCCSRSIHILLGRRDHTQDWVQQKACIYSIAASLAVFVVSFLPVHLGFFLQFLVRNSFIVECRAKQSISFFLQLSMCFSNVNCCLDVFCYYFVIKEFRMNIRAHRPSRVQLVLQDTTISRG

[5] = target: T4, Replicative DNA helicase DnaB (Mycobacterium tuberculosis, UniProt P9WMR3); assay: DnaB intein splicing inhibitors, dose response, biochemical, cell-free fluorescence (AID 449749); assay type: functional
T4 sequence (P9WMR3 whole entry): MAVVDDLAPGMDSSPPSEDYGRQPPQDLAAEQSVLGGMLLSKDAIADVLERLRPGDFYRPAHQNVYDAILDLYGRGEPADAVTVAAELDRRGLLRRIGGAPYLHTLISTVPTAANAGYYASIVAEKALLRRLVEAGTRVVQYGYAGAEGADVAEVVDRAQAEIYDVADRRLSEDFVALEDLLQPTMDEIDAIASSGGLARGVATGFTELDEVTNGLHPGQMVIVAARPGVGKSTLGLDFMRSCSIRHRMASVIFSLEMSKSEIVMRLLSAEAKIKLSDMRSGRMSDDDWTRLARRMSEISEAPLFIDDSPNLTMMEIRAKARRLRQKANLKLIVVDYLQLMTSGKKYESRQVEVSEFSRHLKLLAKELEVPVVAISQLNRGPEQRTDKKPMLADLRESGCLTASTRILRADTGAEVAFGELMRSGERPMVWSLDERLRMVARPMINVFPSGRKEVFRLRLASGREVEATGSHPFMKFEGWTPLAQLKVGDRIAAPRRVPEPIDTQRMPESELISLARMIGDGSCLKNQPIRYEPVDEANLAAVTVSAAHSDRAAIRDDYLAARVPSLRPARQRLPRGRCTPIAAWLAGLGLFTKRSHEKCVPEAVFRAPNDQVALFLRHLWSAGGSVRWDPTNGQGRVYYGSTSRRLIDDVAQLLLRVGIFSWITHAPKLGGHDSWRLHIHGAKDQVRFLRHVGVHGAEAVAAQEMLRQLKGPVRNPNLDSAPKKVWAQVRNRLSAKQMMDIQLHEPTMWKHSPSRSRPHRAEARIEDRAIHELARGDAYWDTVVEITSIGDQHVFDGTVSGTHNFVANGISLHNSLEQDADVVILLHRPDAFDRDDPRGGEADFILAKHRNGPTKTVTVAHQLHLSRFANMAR

Phosphomannomutase 2 = target: T5, Phosphomannomutase 2 (Homo sapiens, UniProt O15305); assay: Counter screen SAR assay for PMM2 inhibitors via a fluorescence intensity assay. [Related pubchem assays (depositor defined):AID1545, AID1574]
T5 sequence (O15305 whole entry): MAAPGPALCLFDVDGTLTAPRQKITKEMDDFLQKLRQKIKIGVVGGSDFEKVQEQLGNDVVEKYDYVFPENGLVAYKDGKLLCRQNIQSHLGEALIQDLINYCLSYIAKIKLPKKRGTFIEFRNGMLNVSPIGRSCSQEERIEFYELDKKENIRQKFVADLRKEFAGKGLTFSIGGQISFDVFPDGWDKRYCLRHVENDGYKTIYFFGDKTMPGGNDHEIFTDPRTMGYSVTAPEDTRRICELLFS

[6] = target: Phosphoethanolamine/phosphocholine phosphatase (Homo sapiens, UniProt Q8TCT1); assay: SAR assay for compounds that inhibit PHOSPHO1. [Related pubchem assays (depositor defined):AID1545, AID1565, AID1574]
Chain of Phosphoethanolamine/phosphocholine phosphatase (Q8TCT1 whole entry): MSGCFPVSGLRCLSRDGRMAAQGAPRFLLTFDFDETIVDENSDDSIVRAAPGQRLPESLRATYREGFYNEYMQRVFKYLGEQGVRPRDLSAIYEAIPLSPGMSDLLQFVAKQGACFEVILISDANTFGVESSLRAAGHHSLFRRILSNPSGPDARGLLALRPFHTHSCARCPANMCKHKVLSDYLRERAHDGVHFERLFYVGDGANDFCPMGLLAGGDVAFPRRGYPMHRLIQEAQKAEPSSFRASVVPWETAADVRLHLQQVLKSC

[7] = target: T6, Short transient receptor potential channel 4 (Mus musculus, UniProt Q9QUQ5); assay: potentiation of DAMGO-evoked TRPC4 calcium signal – cell-based, HEK293 TRPC4/mu-opioid, Fluo-4 calcium, EC20 DAMGO, dose response (AID 434941); assay type: functional
T6 sequence (Q9QUQ5 whole entry): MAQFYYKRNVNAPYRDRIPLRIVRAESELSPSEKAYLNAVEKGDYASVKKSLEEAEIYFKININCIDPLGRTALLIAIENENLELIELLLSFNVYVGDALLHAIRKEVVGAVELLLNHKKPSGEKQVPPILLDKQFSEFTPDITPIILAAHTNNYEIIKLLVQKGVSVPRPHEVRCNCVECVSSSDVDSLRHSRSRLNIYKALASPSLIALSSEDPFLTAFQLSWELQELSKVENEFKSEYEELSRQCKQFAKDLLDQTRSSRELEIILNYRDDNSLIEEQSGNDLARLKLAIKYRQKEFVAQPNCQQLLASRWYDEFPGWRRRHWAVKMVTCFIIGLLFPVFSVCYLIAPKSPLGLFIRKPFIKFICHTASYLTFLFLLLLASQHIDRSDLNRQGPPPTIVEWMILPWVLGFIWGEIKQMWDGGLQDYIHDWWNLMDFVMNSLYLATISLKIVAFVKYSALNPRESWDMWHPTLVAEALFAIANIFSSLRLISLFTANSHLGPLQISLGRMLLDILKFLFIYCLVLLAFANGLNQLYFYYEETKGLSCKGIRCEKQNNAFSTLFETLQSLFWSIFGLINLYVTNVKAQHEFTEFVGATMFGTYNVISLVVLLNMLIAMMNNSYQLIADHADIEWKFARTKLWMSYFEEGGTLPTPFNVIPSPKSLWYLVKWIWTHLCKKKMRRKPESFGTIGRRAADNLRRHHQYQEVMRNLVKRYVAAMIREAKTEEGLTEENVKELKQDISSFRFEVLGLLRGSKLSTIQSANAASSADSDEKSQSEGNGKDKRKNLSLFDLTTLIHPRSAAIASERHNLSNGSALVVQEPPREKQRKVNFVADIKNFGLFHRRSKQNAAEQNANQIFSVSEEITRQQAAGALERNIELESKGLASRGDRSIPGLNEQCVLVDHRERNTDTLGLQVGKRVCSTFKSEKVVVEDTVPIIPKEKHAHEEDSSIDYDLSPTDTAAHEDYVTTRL

Chain of Keap1/Nrf2 (Q16236 whole entry): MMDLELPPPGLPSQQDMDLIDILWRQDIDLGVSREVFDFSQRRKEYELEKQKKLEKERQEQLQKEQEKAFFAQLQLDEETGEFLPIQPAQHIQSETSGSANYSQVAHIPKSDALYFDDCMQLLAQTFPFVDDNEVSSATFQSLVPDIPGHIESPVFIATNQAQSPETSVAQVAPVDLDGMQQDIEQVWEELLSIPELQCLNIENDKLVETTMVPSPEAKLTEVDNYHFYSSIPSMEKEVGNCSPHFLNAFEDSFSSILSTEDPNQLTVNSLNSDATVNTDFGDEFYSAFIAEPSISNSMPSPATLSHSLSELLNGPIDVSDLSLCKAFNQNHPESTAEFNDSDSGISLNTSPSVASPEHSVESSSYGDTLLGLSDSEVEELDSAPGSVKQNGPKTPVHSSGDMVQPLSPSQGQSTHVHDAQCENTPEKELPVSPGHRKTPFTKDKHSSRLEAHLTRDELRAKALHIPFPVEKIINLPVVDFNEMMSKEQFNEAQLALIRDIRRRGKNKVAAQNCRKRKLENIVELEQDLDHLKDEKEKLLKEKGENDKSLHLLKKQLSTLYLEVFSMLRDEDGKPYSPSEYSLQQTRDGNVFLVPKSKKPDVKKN
Chain of Keap1/Nrf2 (Q14145 whole entry): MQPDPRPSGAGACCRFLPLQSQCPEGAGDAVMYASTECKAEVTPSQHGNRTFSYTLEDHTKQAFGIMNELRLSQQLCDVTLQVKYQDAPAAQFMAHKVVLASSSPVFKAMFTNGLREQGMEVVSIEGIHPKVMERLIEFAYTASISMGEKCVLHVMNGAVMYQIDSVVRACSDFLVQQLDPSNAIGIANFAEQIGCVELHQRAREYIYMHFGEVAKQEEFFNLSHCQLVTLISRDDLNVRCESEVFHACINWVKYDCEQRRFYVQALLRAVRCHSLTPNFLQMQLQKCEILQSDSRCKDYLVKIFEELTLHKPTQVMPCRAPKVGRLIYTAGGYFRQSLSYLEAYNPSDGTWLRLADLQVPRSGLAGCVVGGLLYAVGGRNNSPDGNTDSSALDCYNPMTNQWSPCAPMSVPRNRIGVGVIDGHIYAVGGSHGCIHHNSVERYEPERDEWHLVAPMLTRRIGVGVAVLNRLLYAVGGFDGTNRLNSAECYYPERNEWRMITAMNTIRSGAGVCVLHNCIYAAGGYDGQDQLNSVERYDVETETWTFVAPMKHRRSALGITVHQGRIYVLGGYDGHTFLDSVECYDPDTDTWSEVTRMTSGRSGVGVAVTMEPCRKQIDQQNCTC

What does the source list for `Cc1cc2nc3c(O)nc(S)nc3nc2cc1NC(=O)C(F)(F)F`?
AC50 (Keap1/Nrf2): > 52 µM (inactive); EC50 [1]: > 99 µM (inactive); AC50 [2]: 19.6 µM (active); AC50 (Salmon testes DNA): 86.4 µM (active); AC50 (ORF 73): 40.6 µM (active); EC50 [3]: > 99 µM (inactive)

For `O=C(c1ccncc1)N(c1ccc2oc3c(c2c1)CCCC3)S(=O)(=O)c1ccc(F)cc1`, which EC50 (Protein RecA) is on record?
Its EC50 is 6.22 µM (active).

What about the EC50 [4] of the same compound?
The EC50 was > 32 µM (inactive).

And the AC50 [5]?
Its AC50 is 2.09 µM (active).

Which IC50 (Phosphomannomutase 2) does the source give for `CN(C)c1cccc(-n2sc3ccccc3c2=O)c1` here?
The IC50 was 85.2 µM (active).

What about the IC50 [6] of the same compound?
The IC50 was 52.9 µM (inactive).

With `O=C(c1cccc([N+](=O)[O-])c1)N1CCCC(C(=O)N2CCCCCC2)C1` (configuration not stated) as the compound, how does the EC50 [7] read?
The EC50 was 0.33 µM (active).
